Experimental data published in US12115152B2, “Pan-RAF kinase inhibitor and use thereof” (HEFEI INSTITUTES OF PHYSICAL SCIENCE, CHINESE ACADEMY OF …, priority 2019, dated 2024).
Several values for one entry are separate records, joined by “and”; a condition that tells them apart may be missing. Equal entries are not always repeated. Where two headings read alike, the source gives them in different places.

Key:
[1] = test system: Calu-6 transplanted tumor nude mice; assay: Toxicity in Calu-6 cell transplanted tumor mouse model; details: Calu-6 cell transplanted tumor model, oral daily; Compound 16 50, 100, 200 mg/kg; Comparative Compound 1 100 mg/kg
[2] = Pharmacokinetic parameters in rats; format: in vivo, SD rats; details: rat
Procedure: In the example, SD rats (180-220 g, male) (purchased from Experimental Animal Center of Anhui Medical University, China) were used. The animals were kept in cages ventilated independently with 6 rats per cage. The feeding was performed at a temperature of 20˜26° C. and a humidity of 35-75%. The light condition was 12 hours of lighting/12 hours of darkness. The corncob bedding was refreshed once a week. The rats were fed with foods and drinking water on an ad libitum basis. The rats were marked with a number on the tails. During the experiment, the breeding and use of animals strictly follow the regulations of Association for Assessment and Accreditation of Laboratory Animal Care International.
Solutions of Compound 16 and Comparative Compound 1 were prepared as follows. 10 mg of the compound to be tested was precisely weighed into a sterile vial, and was dissolved with a small amount of DMSO, and then was made to a constant volume of 5 ml with 5% glucose solution, to give a gavage test solution at a concentration of 2 mg/mL. 0.5 ml of the above gavage test solution at a concentration of 2 mg/mL was precisely taken, and was made to constant volume of 5 ml with 4.5 ml of 5% glucose solution, to give an intravenous injection test solution at a concentration of 0.2 mg/mL. The solution was prepared immediately before being used in the experiment.
6 SD rats were randomly divided into two groups, and the synthesized compounds were administered by gavage and tail vein injection, respectively. About 0.3 mL of blood samples were collected from the retro-orbital venous plexus at 0 h before administration and at 5 min, 15 min, 30 min, 1 h, 1.5 h, 2 h, 4 h, 6 h, 9 h, 12 h, 24 h after administration for the gavage group; and at 0 h before administration and at 2 min, 5 min, 15 min, 30 min, 1 h, 2 h, 4 h, 6 h, 9 h, and 12 h after administration for the tail vein group. Each of the collected blood samples was put in a 1.5 mL centrifuge tube with heparin (Sigma, USA). The sample was centrifuged at 6000 rpm for 3 min to separate the plasma. 100 μL of plasma in the upper layer was placed into a new 1.5 mL centrifuge tube, and stored at −80° C. for determination. 10 mg of a standard for the compound to be tested was precisely weighed into a 10 mL volumetric flask, and was dissolved by adding methanol to make a constant volume and mixed uniformly, to give a 1 mg/mL stock solution. The stock solution was then diluted gradually with methanol to give a series of working solutions at concentrations of 0.01, 0.02, 0.05, 0.1, 0.2, 0.5, 1, 2, 5, 10, 20 μg/mL. The working solutions were placed in a refrigerator at 4° C. for later use. 11 centrifuge tubes were used. 10 μL of the above working solutions was respectively added to each of the centrifuge tubes, and then 90 μL of blank rat plasma was respectively added therein. The mixtures were mixed uniformly, so that the concentration of the compound in the rat plasma was 1, 2, 5, 10, 20, 50, 100, 200, 500, 1000, 2000 ng/mL. Then, 20 μL of a solution of caffeine as the internal standard (200 ng/mL) (National Institutes for Food and Drug Control, China) was added therein, and the resultant mixtures were vortexed for 10 s. Next, 400 μL of methanol was added. The resultant mixtures were vortexed for 10 min, and centrifuged at 16000 rpm for 5 min. Thereafter, 70 μL of the supernatant was placed into the inserted pipe of a sampling bottle. 5 μL of the sample was introduced for a LC-MS/MS analysis. A standard curve of the compound in the rat plasma was obtained by means of a linear regression performed by taking the ratio of the peak area of the sample to that of the internal standard As/Ais as the vertical ordinate, taking the concentration C (μg/mL) as the horizontal ordinate, and taking 1/C^2 was taken as a weighting coefficient.
To 100 μL of the rat plasma to be tested stored at −80° C., 20 μL of a caffeine solution (200 ng/mL) as the internal standard was added. The resultant mixture was vortexed for 10 s. […]

[3] = male, Sprague-Dawley, plasma, iv, 1 mg/kg, intravenous injection 1 mg/kg, average n=3
[4] = male, Sprague-Dawley, plasma, iv, 1 mg/kg, intravenous injection 1 mg/kg, individual rats #1-#3
[5] = intravenous injection 1 mg/kg, average n=3
[6] = intravenous injection 1 mg/kg, individual rats #1-#3, 1 mg/kg
[7] = oral administration (gavage) 10 mg/kg, average n=3
[8] = oral administration (gavage) 10 mg/kg, individual rats #1-#3, 10 mg/kg

Structure (SMILES): Cc1ccc(NC(=O)c2cccc(C(F)(F)F)c2)cc1-n1cc(-c2cncc(N3CCOCC3)c2)cn1 [Example 16, N-(4-methyl-3-(4-(5-morpholinopyrid-3-yl)-1H-pyrazol-1-yl)phenyl)-3-(trifluoromethyl)benzamide]
- toxicity [1]: did not exhibit any toxicity
- AUC(0-inf) ([2]; male, SD, plasma, po, 10 mg/kg, oral administration (gavage) 10 mg/kg, average n=3): 11000 ng·h/mL
- Tmax ([2]; male, SD, plasma, po, 10 mg/kg, oral administration (gavage) 10 mg/kg, average n=3, read-out: Tmax): 0.67 h
- half-life ([2]; male, SD, plasma, po, 10 mg/kg, oral administration (gavage) 10 mg/kg, average n=3, read-out: T½ (converted)): 3.02 h
- AUC(0-inf) ([2]; male, SD, plasma, po, 10 mg/kg, oral administration (gavage) 10 mg/kg, individual rats #1-#3): 13500 ng·h/mL
- AUC0-t ([2]; male, SD, plasma, po, 10 mg/kg, oral administration (gavage) 10 mg/kg, individual rats #1-#3, read-out: AUC0-t): 13400 ng·h/mL
- Tmax ([2]; male, SD, plasma, po, 10 mg/kg, oral administration (gavage) 10 mg/kg, individual rats #1-#3, read-out: Tmax): 0.5 h
- half-life ([2]; male, SD, plasma, po, 10 mg/kg, oral administration (gavage) 10 mg/kg, individual rats #1-#3, read-out: T½ (converted)): 3.19 h
- AUC(0-inf) [2, 3]: 765 ng·h/mL
- clearance [2, 3]: 21.9 mL/min/kg
- AUC0-t ([2]; male, Sprague-Dawley, plasma, iv, 1 mg/kg, intravenous injection 1 mg/kg, average n=3, read-out: AUC0-t): 742 ng·h/mL
- C0 ([2]; male, Sprague-Dawley, plasma, iv, 1 mg/kg, intravenous injection 1 mg/kg, average n=3, read-out: C0): 1120 ng/mL
- Cmax ([2]; male, Sprague-Dawley, plasma, iv, 1 mg/kg, intravenous injection 1 mg/kg, average n=3, read-out: Cmax): 914 ng/mL
- MRT last ([2]; male, Sprague-Dawley, plasma, iv, 1 mg/kg, intravenous injection 1 mg/kg, average n=3, read-out: MRT0-t): 1.89 h
- MRT inf ([2]; male, Sprague-Dawley, plasma, iv, 1 mg/kg, intravenous injection 1 mg/kg, average n=3, read-out: MRT0-∞): 2.33 h
- Tmax ([2]; male, Sprague-Dawley, plasma, iv, 1 mg/kg, intravenous injection 1 mg/kg, average n=3, read-out: Tmax): 0.033 h
- half-life ([2]; male, Sprague-Dawley, plasma, iv, 1 mg/kg, intravenous injection 1 mg/kg, average n=3, read-out: T½ (converted)): 3.01 h
- Vd ([2]; male, Sprague-Dawley, plasma, iv, 1 mg/kg, intravenous injection 1 mg/kg, average n=3, read-out: Vz): 5.66 L/kg
- AUC(0-inf) [2, 4]: 861 ng·h/mL
- clearance [2, 4]: 19.4 mL/min/kg
- AUC0-t ([2]; male, Sprague-Dawley, plasma, iv, 1 mg/kg, intravenous injection 1 mg/kg, individual rats #1-#3, read-out: AUC0-t): 822 ng·h/mL
- C0 ([2]; male, Sprague-Dawley, plasma, iv, 1 mg/kg, intravenous injection 1 mg/kg, individual rats #1-#3, read-out: C0): 1310 ng/mL
- Cmax ([2]; male, Sprague-Dawley, plasma, iv, 1 mg/kg, intravenous injection 1 mg/kg, individual rats #1-#3, read-out: Cmax): 1020 ng/mL
- MRT last ([2]; male, Sprague-Dawley, plasma, iv, 1 mg/kg, intravenous injection 1 mg/kg, individual rats #1-#3, read-out: MRT0-t): 2.08 h
- MRT inf ([2]; male, Sprague-Dawley, plasma, iv, 1 mg/kg, intravenous injection 1 mg/kg, individual rats #1-#3, read-out: MRT0-∞): 2.75 h
- Tmax ([2]; male, Sprague-Dawley, plasma, iv, 1 mg/kg, intravenous injection 1 mg/kg, individual rats #1-#3, read-out: Tmax): 0.033 h
- half-life ([2]; male, Sprague-Dawley, plasma, iv, 1 mg/kg, intravenous injection 1 mg/kg, individual rats #1-#3, read-out: T½ (converted)): 3.59 h
- Vd ([2]; male, Sprague-Dawley, plasma, iv, 1 mg/kg, intravenous injection 1 mg/kg, individual rats #1-#3, read-out: Vz): 6.01 L/kg
- bioavailability ([2]; male, Sprague-Dawley, plasma, oral, 10 mg/kg, oral administration (gavage) 10 mg/kg vs intravenous 1 mg/kg, average n=3, read-out: F (oral bioavailability)): 144%
- AUC0-t ([2]; male, Sprague-Dawley, plasma, po, 10 mg/kg, oral administration (gavage) 10 mg/kg, average n=3, read-out: AUC0-t): 10900 ng·h/mL
- Cmax ([2]; male, Sprague-Dawley, plasma, po, 10 mg/kg, oral administration (gavage) 10 mg/kg, average n=3, read-out: Cmax): 1480 ng/mL
- MRT last ([2]; male, Sprague-Dawley, plasma, po, 10 mg/kg, oral administration (gavage) 10 mg/kg, average n=3, read-out: MRT0-t): 6.62 h
- MRT inf ([2]; male, Sprague-Dawley, plasma, po, 10 mg/kg, oral administration (gavage) 10 mg/kg, average n=3, read-out: MRT0-∞): 6.81 h
- MRT last ([2]; male, Sprague-Dawley, plasma, po, 10 mg/kg, oral administration (gavage) 10 mg/kg, individual rats #1-#3, read-out: MRT0-t): 5.99 h
- MRT inf ([2]; male, Sprague-Dawley, plasma, po, 10 mg/kg, oral administration (gavage) 10 mg/kg, individual rats #1-#3, read-out: MRT0-∞): 6.19 h
- AUMC0-t [2, 5]: 1413 hr*hr*ng/ml
- AUMC0-∞ [2, 5]: 1805 hr*hr*ng/ml
- AUC0-t [2, 6]: 680 ng·h/mL and 723 ng·h/mL
- AUC0-∞ [2, 6]: 694 ng·h/mL and 742 ng·h/mL
- AUMC0-t [2, 6]: 1708 hr*hr*ng/ml and 1207 hr*hr*ng/ml and 1326 hr*hr*ng/ml
- AUMC0-∞ [2, 6]: 2368 hr*hr*ng/ml and 1418 hr*hr*ng/ml and 1630 hr*hr*ng/ml
- C0 [2, 6]: 933 ng/mL and 1116 ng/mL
- Cl [2, 6]: 24.03 mL/min/kg and 22.47 mL/min/kg
- Cmax [2, 6]: 796 ng/mL and 925 ng/mL
- MRT0-t [2, 6]: 1.77 h and 1.83 h
- MRT0-∞ [2, 6]: 2.04 h and 2.20 h
- T½ [2, 6]: 2.62 h and 2.84 h
- Vz [2, 6]: 5.441 L/kg and 5.521 L/kg
- F (oral bioavailability) ([2]; oral administration (gavage) 10 mg/kg vs intravenous 1 mg/kg, individual rats #1-#3): 176.1% and 157.7% and 98.3%
- AUMC0-t [2, 7]: 70219 hr*hr*ng/ml
- AUMC0-∞ [2, 7]: 72777 hr*hr*ng/ml
- Cl [2, 7]: 16.1 mL/min/kg
- Vz [2, 7]: 4.204 L/kg
- AUC0-t [2, 8]: 11999 ng·h/mL and 7435 ng·h/mL
- AUC0-∞ [2, 8]: 12067 ng·h/mL and 7520 ng·h/mL
- AUMC0-t [2, 8]: 80004 hr*hr*ng/ml and 72172 hr*hr*ng/ml and 58480 hr*hr*ng/ml
- AUMC0-∞ [2, 8]: 83364 hr*hr*ng/ml and 74076 hr*hr*ng/ml and 60891 hr*hr*ng/ml
- Cl [2, 8]: 12.4 mL/min/kg and 13.8 mL/min/kg and 22.17 mL/min/kg
- Cmax [2, 8]: 2090 ng/mL and 1710 ng/mL and 645 ng/mL
- MRT0-t [2, 8]: 6.01 h and 7.87 h
- MRT0-∞ [2, 8]: 6.14 h and 8.10 h
- Tmax [2, 8]: 1 h
- T½ [2, 8]: 2.86 h and 3.01 h
- Vz [2, 8]: 3.418 L/kg and 3.42 L/kg and 5.773 L/kg
